From ChEMBL document CHEMBL5260860, “Simple monocyclic pyrimidine analogs as microtubule targeting agents binding to the colchicine site” (Bioorg Med Chem, 2023)
Activity calls are given as the source filed them. The calls are words filed in the database; no cut-off is given here.

Assays:
HeLa [1] = assay: Antiproliferative activity against human HeLa cells overexpressing betaIII-tubulin assessed as inhibition of cell growth by SRB assay; assay type: functional, cell-based
SK-OV-3 [2] = assay: Antiproliferative activity against wild type human SK-OV-3 cells assessed as inhibition of cell growth by SRB assay; assay type: functional, cell-based
MDA-MB-435 [3] = assay: Antiproliferative activity against human MDA-MB-435 cells assessed as inhibition of cell growth by SRB assay; assay type: functional, cell-based
[4] = Selectivity ratio of EC50 for induction of microtubule depolymerization in rat A10 cells to IC50 for antiproliferative activity against human MDA-MB-435 cells
Tubulin (Bos taurus) = Tubulin (Bos taurus) (UniProt Q6B856+Q862L2+Q862F3); assay: Displacement of [3H]colchicine from bovine brain tubulin at 5 uM incubated for 10 mins; assay type: tissue-based
SK-OV-3 [5] = assay: Antiproliferative activity against human SK-OV-3 cells overexpressing MDR-1-M6/6 assessed as inhibition of cell growth by SRB assay; assay type: functional, cell-based
HeLa [6] = assay: Antiproliferative activity against wild type human HeLa cells assessed as inhibition of cell growth by SRB assay; assay type: functional, cell-based
[7] = Induction of microtubule depolymerization in rat A10 cells incubated for 18 hrs by indirect immunofluorescence analysis; assay type: cell-based
MDA-MB-435 [8] = assay: Antitumor activity against human MDA-MB-435 cells xenografted in nude mouse assessed as reduction in tumor volume at 50 mg/kg, ip administered 3 times a week for 2 weeks and measured on day 14; assay type: functional, organism-based; details: time 14.0 day
MDA-MB-435 [9] = assay: Antitumor activity against human MDA-MB-435 cells xenografted in nude mouse at 50 mg/kg, ip administered 3 times a week for 2 weeks and measured on day 14; assay type: functional, organism-based; details: time 14.0 day
MDA-MB-435 [10] = assay: Antitumor activity against human MDA-MB-435 cells xenografted in nude mouse at 15 mg/kg, ip administered 3 times a week for 2 weeks and measured on day 14; assay type: functional, organism-based; details: time 14.0 day
MDA-MB-435 [11] = assay: Antitumor activity against human MDA-MB-435 cells xenografted in nude mouse assessed as reduction in tumor volume at 15 mg/kg, ip administered 3 times a week for 2 weeks and measured on day 14; assay type: functional, organism-based; details: time 14.0 day
Tubulin = Tubulin (Bos taurus, UniProt Q6B856+Q862L2+Q862F3); assay: Inhibition of bovine brain tubulin assembly; assay type: tissue-based

| SMILES | IC50 (HeLa [1]) [nM] | IC50 (SK-OV-3 [2]) [nM] | IC50 (MDA-MB-435 [3]) [nM] | inhibition (Tubulin (Bos taurus)) [%] | IC50 (SK-OV-3 [5]) [nM] | IC50 (HeLa [6]) [nM] | EC50 [7] [nM] | IC50 (Tubulin) [nM] | Selectivity ratio [4] | Activity (MDA-MB-435 [8]) | Activity (MDA-MB-435 [9]) | Activity (MDA-MB-435 [10]) | Activity (MDA-MB-435 [11]) |
| --- | --- | --- | --- | --- | --- | --- | --- | --- | --- | --- | --- | --- | --- |
| COc1ccc(N(C)c2nc(C)nc(N)c2C)cc1 | 250 | 312 | 206 | 45 | > 500 | 229 | > 8000 | – | >39 | – | – | – | – |
| COc1ccc(N(C)c2nc(C)nc(NC(C)C)c2Cl)cc1 | 1000 | 1400 | 685 | – | 1600 | 800 | 7400 | – | 11 | – | – | – | – |
| COc1ccc2c(c1)CCCN2c1nc(C)nc(NC(=O)C(C)(C)C)c1Cl | 2600 | 3300 | 2100 | – | – | 2600 | > 10000 | – | – | – | – | – | – |
| CC(=O)O[C@H]1C(=O)[C@@]2(C)[C@H]([C@H](OC(=O)c3ccccc3)[C@]3(O)C[C@H](OC(=O)[C@H](O)[C@@H](NC(=O)c4ccccc4)c4ccccc4)C(C)=C1C3(C)C)[C@]1(OC(C)=O)CO[C@@H]1C[C@@H]2O [PACLITAXEL] | – | 5 | – | – | – | – | – | – | – | – | – | inactive | Active |
| CSc1ccc(N(C)c2nc(C)nc(N)c2Cl)cc1 | 163 | 277 | 140 | 71 | – | 158 | 3300 | – | – | – | – | – | – |
| COc1ccc(/C=C\c2cc(OC)c(OC)c(OC)c2)cc1O [COMBRETASTATIN A4] | – | – | – | – | – | – | 9.8 | – | – | – | – | – | – |
| COc1ccc(N(C)c2nc(C)nc(NCc3ccccc3)c2Cl)cc1 | – | – | – | 14 | – | – | > 10000 | – | – | – | – | – | – |
| COc1ccc(Nc2nc(C)nc(N)c2Cl)cc1 | – | – | – | – | – | – | > 10000 | – | – | – | – | – | – |
| Cc1nc(N)c(Cl)c(N(C)c2ccc3c(c2)CCO3)n1 | 415 | 742 | 620 | 60 | 1050 | 490 | 9200 | – | 15 | – | – | – | – |
| COc1ccc(N(C)c2nc(C)nc3[nH]ccc23)cc1 | – | – | – | 70 | – | – | 5800 | 2600 | 32 | – | – | – | – |
| COc1cccc(N(C)c2nc(C)nc(N)c2Cl)c1 | – | – | – | – | – | – | > 10000 | – | – | – | – | – | – |
| COc1ccc(N(C)c2nc(C)nc(NC(C)=O)c2Cl)cc1 | – | – | 3700 | – | – | – | > 15000 | – | – | – | – | – | – |

Now from value to molecule, other results behind:

| IC50 (HeLa [1]) [nM] | IC50 (SK-OV-3 [2]) [nM] | IC50 (MDA-MB-435 [3]) [nM] | inhibition (Tubulin (Bos taurus)) [%] | IC50 (SK-OV-3 [5]) [nM] | IC50 (HeLa [6]) [nM] | EC50 [7] [nM] | IC50 (Tubulin) [nM] | SMILES | Selectivity ratio [4] | Activity (MDA-MB-435 [8]) | Activity (MDA-MB-435 [9]) | Activity (MDA-MB-435 [10]) | Activity (MDA-MB-435 [11]) |
| --- | --- | --- | --- | --- | --- | --- | --- | --- | --- | --- | --- | --- | --- |
| 33.8 | 34.2 | 24.4 | 82 | 39.2 | 27.9 | 123 | – | CCCNc1nc(C)nc(N(C)c2ccc(OC)cc2)c1Cl | 5 | Active | inactive | – | – |
| 70.2 | 64.7 | 56.1 | 74 | 193 | 67.1 | 831 | – | COc1cccc2cc(N(C)c3nc(C)nc(N)c3Cl)ccc12 | 15 | – | – | – | – |
| 234 | 227 | 221 | 61 | 362 | 368 | 260 | – | CCCNc1nc(C)nc(N(C)c2ccc3c(OC)cccc3c2)c1Cl | 1.2 | – | – | – | – |
| 61.7 | 77.9 | 50.4 | 74 | 93.5 | 41.8 | 305 | – | CCNc1nc(C)nc(N(C)c2ccc(OC)cc2)c1Cl | 6 | – | – | – | – |
| 107 | 118 | 103 | 68 | 169 | 87.6 | 2100 | – | CNc1nc(C)nc(N(C)c2ccc(OC)cc2)c1Cl | 20 | – | – | – | – |
| 105 | 122 | 84.4 | 84 | 165 | 66.2 | 432 | – | CCCCNc1nc(C)nc(N(C)c2ccc(OC)cc2)c1Cl | 5 | – | – | – | – |
| 279 | 459 | 220 | 61 | 576 | 312 | 1400 | – | COc1ccc2c(c1)CCCN2c1nc(C)nc(N)c1Cl | 6.5 | – | – | – | – |
| 104 | 107 | 78.1 | 57 | 117 | 96.7 | 394 | – | COc1ccc(N(C)c2nc(C)nc(NCC(C)C)c2Cl)cc1 | 5 | – | – | – | – |
| 112 | 133 | 71.3 | 76 | 180 | 86.3 | 1500 | – | COc1ccc(N(C)c2nc(C)nc(N)c2Cl)cc1 | 21 | – | – | – | – |
